Measurements: ChEMBL document CHEMBL4266042, “Total Synthesis of Norsampsones A and B, Garcinielliptones N and O, and Hyperscabrin A” (J Nat Prod, 2018)

Tests used:
Assay type in all cases: functional, cell-based
786-0 = experiment: Cytotoxicity against human 786-O cells after 3 to 5 days by CellTiter-Glo assay
A549 = experiment: Cytotoxicity against human A549 cells after 3 to 5 days by CellTiter-Glo assay
SNU1 = experiment: Cytotoxicity against human SNU1 cells after 3 to 5 days by CellTiter-Glo assay
KMS-11 = experiment: Cytotoxicity against human KMS11 cells after 3 to 5 days by CellTiter-Glo assay

Measured: IC50

CC(C)=CC[C@@H]1C[C@H](CC=C(C)C)C(C)(C)[C@@H](C(=O)C(C)C)C1=O
> 10 µM: all assays above

COC(=O)[C@]1(CC=C(C)C)C[C@H](CC=C(C)C)C(C)(C)[C@@H](C(=O)C(C)C)C1=O
> 10 µM: all assays above

CC(C)=CCCC(=O)[C@]1(CC=C(C)C)C[C@H](CC=C(C)C)C(C)(C)[C@@H](C(=O)c2ccccc2)C1=O
> 10 µM: all assays above

CC(C)=CC[C@@H]1C[C@H](CC=C(C)C)C(C)(C)[C@H](C(=O)C(C)C)C1=O
> 10 µM: all assays above

COC(=O)[C@]1(CC=C(C)C)C[C@H](CC=C(C)C)C(C)(C)[C@H](C(=O)C(C)C)C1=O
> 10 µM: all assays above

CC(C)=CCCC(=O)[C@]1(CC=C(C)C)C[C@H](CC=C(C)C)C(C)(C)[C@H](C(=O)c2ccccc2)C1=O
> 10 µM: all assays above

COC(=O)[C@@]1(CC=C(C)C)C[C@H](CC=C(C)C)C(C)(C)[C@H](C(=O)C(C)C)C1=O
> 10 µM: all assays above
